Laboratory results taken from US7001616B2, “Microspheres for use in the treatment of cancer” (University of Florida, priority 1998, dated 2006).
Where a name gives a salt, the structure may show the parent alone.

Key:
Format in all cases: physicochemical
[1] = Total percent loading of microspheres with FUDR; details: 5 mg/ml FUDR in methanol; 50/49/1 microspheres, 50–80 μm
Experimental: (§1) Initial FUDR Test. 150 mg of 50–80 μm diameter EMA/DEA/DVB (in a ratio of 50/49/1) microspheres were washed twice with methanol, dried and then immersed in 1 ml of methanol containing 5 mg FUDR. After 24 hours the methanol was allowed to evaporate and the loaded spheres were dispersed in 50 ml of distilled water and centrifuged repeatedly for 10 cycles. The spheres were collected and allowed to dry in a cone filter under the hood for 24 hours. 10 mg of the loaded spheres were placed in each of two separate vials containing either 15 ml of pH 6.8 citric acid buffer (0.05 M I=0.3) or pH 7.4 potassium phosphate monobasic-NaOH buffer (0.05M, Fisher Scientific). Each vial was agitated by hand daily and a total of 5 samples (5 ml each) were taken over a 14 day period and measured spectrophotometrically at 268 nm to determine the FUDR concentration in solution. Each sample was replaced using fresh buffer. The total percent loading was determined by the same process after placing a 10 mg sample of spheres into 15 ml of pH 4.0 citric acid buffer for 24 hours.

[2] = In vitro FUDR release from microspheres in buffer; details: 50/49/1 microspheres
Experimental: as §1
Follow-up FUDR Release. […] Sample volumes of 5 ml and 3 ml were taken from the pH 6.6 and 6.9 buffers, respectively.

[3] = In vitro doxorubicin release from microspheres in buffer; details: pH 6.75; 50/49/1 microspheres
Experimental: Doxorubicin Release. The doxorubicin release experiments were carried out in the same manner as the FUDR and dye release. 150 mg of 50–80 μm diameter microspheres were cleaned and immersed in 1 ml of methanol containing 5 mg of the drug for 24 hours and the methanol was allowed to evaporate slowly under the hood. The loaded microspheres were cleaned and dried and 10 mg samples were placed into 20 ml glass vials (Fisher Scientific). 15 ml of citric acid buffer was placed into each vial such that there were three samples each at pH values of 6.6, 6.75, and 6.9. Drug release at pH 7.4 was performed using 15 ml potassium phosphate buffer added to each of the remaining three vials. Drug release was measured spectrophotometrically at 479 nm.

[4] = Total percent loading of microspheres with test dye; details: 9-aminoacridine, 100 mg per ml of methanol; spheres from suspension polymerization
Experimental: (§2) All four compositions produced in Example 1 were tested for release properties using 9-aminoacridine (Aldrich) (free from HCl) as a test dye. A 100–150 mg sample of each composition (from the 50–80 μm size group) was first washed twice with methanol, allowed to dry, and then immersed in a saturated solution of 9-aminoacridine in methanol (10 wt %) for 24 hours. The methanol was allowed to evaporate (usually for 24 hours) and the microspheres were washed by a repeated process of suspension and centrifuging (Adams Dynac centrifuge) in fresh neutral pH water (at least 10 cycles). The loaded spheres were collected in a paper filter cone and dried in an oven at 60° C. under vacuum.
For each composition, 5 mg of dye-loaded spheres were placed in glass vials (Fisher 20 ml scintillation vials) containing 15 ml of citric acid buffer (0.05 M, I=0.3) at pH 6.0, 6.5, and 6.8. The buffer solutions consisted of citric acid (anhydrous, Fisher Scientific), NaOH (Fisher Scientific), deionized water, and NaCl (Aldrich). A total of three samples were used from each composition at each pH value to account for error involved with the weighing of the microspheres. At least five samples (5 ml each) were taken from each vial over a 14 day period and the concentration of dye released was determined spectrophotometrically at 400 nm using a Perkin-Elmer Lambda 3B UV/VIS spectrophotometer. […]

[5] = Release of test dye from microspheres in buffer over 14 days
Experimental: as §2
[…] […] A total of three samples were used from each composition at each pH value to account for error involved with the weighing of the microspheres. At least five samples (5 ml each) were taken from each vial over a 14 day period and the concentration of dye released was determined spectrophotometrically at 400 nm using a Perkin-Elmer Lambda 3B UV/VIS spectrophotometer. Each sample was replaced with fresh buffer solution. A 5 mg sample of each composition was also placed into 15 ml of pH 2.5 citric acid buffer (0.05 M) for 24 hours to determine the total percent loading (mg dye released/mg loaded spheres) for the microspheres.

O=c1[nH]c(=O)n([C@H]2C[C@H](O)[C@@H](CO)O2)cc1F [FUDR, fluorodeoxyuridine]
FUDR loading level [1]: 1.4 weight percentage
FUDR release over 14 day period ([2]; pH 6.8): 80%
FUDR 14 day release ([2]; pH 6.9): 55%
FUDR release ([2]; pH 7.4): over 10%

COc1cccc2c1C(=O)c1c(O)c3c(c(O)c1C2=O)C[C@@](O)(C(=O)CO)C[C@@H]3O[C@H]1C[C@H](N)[C@H](O)[C@H](C)O1 [doxorubicin, hydroxydaunomycin hydrochloride]
doxorubicin release over two week period [3]: 75%

Nc1c2ccccc2nc2ccccc12 [test dye, 9-aminoacridine]
dye loading as restated in text [4]: about 15%
test dye release after 14 days ([5]; pH 6.8 citric acid buffer): 76%
test dye release after 14 days ([5]; pH 6.9 citric acid buffer): 63%
test dye release after two weeks ([5]; pH 7.4 potassium phosphate monobasic-NaOH buffer): over 10%
